Laboratory results reported in PubChem BioAssay AID330 (DTP/NCI, 2004).
Values joined by “and” are separate entries in the source; they are usually repeats but may differ in a detail not shown here. Equal values may be shown once. Inconclusive results and toxic doses are left out.

Tested on: P388 leukemia ip, CD2F1 mice, survival T/C
Experiment: NCI In Vivo Anticancer Drug Screen. Data for tumor model P388 Leukemia (intraperitoneal) in CD2F1 (CDF1) mice
Settings: endpoint: median survival time, higher = longer survival
Summary of the method: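 Mice carrying the transplanted tumor received test compound or vehicle. Survival was recorded in each group, and the value is the treated-group measurement divided by that of the vehicle-treated control group.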

[1] = dose: 50.0 mg/kg/injection, schedule: Q01DX009 (ip), vehicle: saline with Tween-80
[2] = dose: 100.0 mg/kg/injection, schedule: Q01DX009 (ip), vehicle: saline with Tween-80
[3] = dose: 200.0 mg/kg/injection, schedule: Q01DX009 (ip), vehicle: saline with Tween-80
[4] = dose: 100.0 mg/kg/injection, schedule: Q01DX005 (ip), vehicle: Klucel (hydroxypropylcellulose) (HPC)
[5] = dose: 60.0 mg/kg/injection, schedule: Q01DX005 (ip), vehicle: saline
[6] = dose: 120.0 mg/kg/injection, schedule: Q01DX005 (ip), vehicle: saline
[7] = dose: 50.0 mg/kg/injection, schedule: Q01DX009 (ip), vehicle: Klucel (hydroxypropylcellulose) (HPC)
[8] = dose: 100.0 mg/kg/injection, schedule: Q01DX009 (ip), vehicle: Klucel (hydroxypropylcellulose) (HPC)
[9] = dose: 200.0 mg/kg/injection, schedule: Q01DX009 (ip), vehicle: Klucel (hydroxypropylcellulose) (HPC)

In the case of CC(C)(CCC(C)(C)NCCCN)NCCCN, the T/C (dose: 3.13 mg/kg/injection, schedule: Q01DX009 (ip), vehicle: water) is reported as 115 % of control, the T/C (dose: 6.25 mg/kg/injection, schedule: Q01DX009 (ip), vehicle: water) is reported as 112 % of control and the T/C (dose: 12.5 mg/kg/injection, schedule: Q01DX009 (ip), vehicle: water) is reported as 102 % of control. For the same molecule, the T/C (dose: 25.0 mg/kg/injection, schedule: Q01DX009 (ip), vehicle: water) was 103 % of control and the T/C (dose: 50.0 mg/kg/injection, schedule: Q01DX009 (ip), vehicle: water) was 97 % of control.

c1ccc(C(NC2CC3CCC2C3)c2ccccc2)cc1 (stereo not given) was tested, and the T/C (dose: 37.5 mg/kg/injection, schedule: Q01DX009 (ip), vehicle: saline with Tween-80) was 100 % of control and the T/C (dose: 75.0 mg/kg/injection, schedule: Q01DX009 (ip), vehicle: saline with Tween-80) was 95 % of control.

In the case of CC(=O)NC1=C(C#N)CCCC1, the T/C (dose: 100.0 mg/kg/injection, schedule: Q04DX003 (ip), vehicle: saline) is reported as 101 % of control, the T/C (dose: 200.0 mg/kg/injection, schedule: Q04DX003 (ip), vehicle: saline) is reported as 104 % of control and the T/C (dose: 400.0 mg/kg/injection, schedule: Q04DX003 (ip), vehicle: saline) is reported as 100 % of control.

CCc1c(C)[nH]n(C(N)=NCCSCc2nc[nH]c2C)c1=O was tested, and the T/C (dose: 60.0 mg/kg/injection, schedule: Q01DX005 (ip), vehicle: Klucel (hydroxypropylcellulose) (HPC)) was 108 % of control, the T/C (dose: 120.0 mg/kg/injection, schedule: Q01DX005 (ip), vehicle: Klucel (hydroxypropylcellulose) (HPC)) was 100 % of control and the T/C (dose: 240.0 mg/kg/injection, schedule: Q01DX005 (ip), vehicle: Klucel (hydroxypropylcellulose) (HPC)) was 91 % of control.

Cn1c(=O)c2ccccc2c2ccccc21 was tested, and the T/C [1] was 96 % of control, the T/C [2] was 96 % of control and the T/C [3] was 95 % of control. The T/C (dose: 400.0 mg/kg/injection, schedule: Q01DX009 (ip), vehicle: saline with Tween-80) was 99 % of control.

In the case of CC(=O)O[C@H]1CC[C@@]2(C)C(=CC[C@@H]3[C@@H]2CC[C@]2(C)C(=NCCCN4CCOCC4)CC[C@@H]32)C1, the T/C (dose: 50.0 mg/kg/injection, schedule: Q01DX005 (ip), vehicle: Klucel (hydroxypropylcellulose) (HPC)) is reported as 105 % of control, the T/C [4] is reported as 101 % of control and the T/C (dose: 200.0 mg/kg/injection, schedule: Q01DX005 (ip), vehicle: Klucel (hydroxypropylcellulose) (HPC)) is reported as 99 % of control.

With O=C1c2cccc(Oc3ccccc3)c2C(=O)c2cccc(Oc3ccccc3)c21 the T/C (dose: 100.0 mg/kg/injection, schedule: Q04DX003 (ip), vehicle: saline with Tween-80) was 95 % of control, the T/C (dose: 200.0 mg/kg/injection, schedule: Q04DX003 (ip), vehicle: saline with Tween-80) was 86 % of control and the T/C (dose: 400.0 mg/kg/injection, schedule: Q04DX003 (ip), vehicle: saline with Tween-80) was 90 % of control.

With CC1(C)CC(C)(C)c2c1oc(=O)c1c3c(oc(=O)c21)C(C)(C)CC3(C)C the T/C (dose: 3.12 mg/kg/injection, schedule: Q01DX005 (ip), vehicle: Klucel (hydroxypropylcellulose) (HPC)) was 96 % of control, the T/C (dose: 6.25 mg/kg/injection, schedule: Q01DX005 (ip), vehicle: Klucel (hydroxypropylcellulose) (HPC)) was 100 % of control and the T/C (dose: 12.5 mg/kg/injection, schedule: Q01DX005 (ip), vehicle: Klucel (hydroxypropylcellulose) (HPC)) was 87 % of control. For the same molecule, the T/C (dose: 25.0 mg/kg/injection, schedule: Q01DX005 (ip), vehicle: Klucel (hydroxypropylcellulose) (HPC)) was 87 % of control and 90 % of control and the T/C [4] was 90 % of control and 91 % of control.

With COCC1(CCC(C)=C(C)C)Nc2ccc(C(=O)O)cc2CC1Cl (stereo not given) the T/C (dose: 1.25 mg/kg/injection, schedule: Q01DX005 (ip), vehicle: Klucel (hydroxypropylcellulose) (HPC)) was 98 % of control and the T/C (dose: 2.5 mg/kg/injection, schedule: Q01DX005 (ip), vehicle: Klucel (hydroxypropylcellulose) (HPC)) was 101 % of control.

For O=C(O)c1cocc1C(=O)O, the T/C [5] was 99 % of control and the T/C [6] was 86 % of control.

CC1=NNB(O)c2c1sc(Br)c2Br was tested, and the T/C (dose: 100.0 mg/kg/injection, schedule: Q01DX001 (ip), vehicle: saline with Tween-80) was 100 % of control and the T/C (dose: 200.0 mg/kg/injection, schedule: Q01DX001 (ip), vehicle: saline with Tween-80) was 95 % of control.

O=C(CCl)c1ccc(Cl)c(Cl)c1 was tested, and the T/C (dose: 100.0 mg/kg/injection, schedule: Q01DX001 (ip), vehicle: other) was 100 % of control and the T/C (dose: 200.0 mg/kg/injection, schedule: Q01DX001 (ip), vehicle: other) was 100 % of control.

With CCN(CC)CCCC(C)Nc1ncnc2ccc(OC)cc12 (stereo not given) the T/C (dose: 50.0 mg/kg/injection, schedule: Q01DX005 (ip), vehicle: saline) was 94 % of control, the T/C (dose: 100.0 mg/kg/injection, schedule: Q01DX005 (ip), vehicle: saline) was 99 % of control and the T/C (dose: 200.0 mg/kg/injection, schedule: Q01DX005 (ip), vehicle: saline) was 94 % of control.

CCN(CC)c1nc(/C=C\c2ccc(N(C)C)cc2)c2nccnc2n1 was tested, and the T/C [7] was 95 % of control, the T/C [8] was 90 % of control and the T/C [9] was 94 % of control.

For O=C1C=C(SCCO)C(=O)c2ccccc21, the T/C (dose: 0.62 mg/kg/injection, schedule: Q01DX009 (ip), vehicle: saline with Tween-80) was 100 % of control, the T/C (dose: 1.25 mg/kg/injection, schedule: Q01DX009 (ip), vehicle: saline with Tween-80) was 100 % of control and the T/C (dose: 2.5 mg/kg/injection, schedule: Q01DX009 (ip), vehicle: saline with Tween-80) was 95 % of control.

In the case of C/C(=C\Cl)CO, the T/C (dose: 25.0 mg/kg/injection, schedule: Q01DX009 (ip), vehicle: saline with Tween-80) is reported as 111 % of control, the T/C [1] is reported as 111 % of control and the T/C [2] is reported as 94 % of control.

O=C(/C=C/c1ccc(Cl)c(Cl)c1)c1cccc(O)c(=O)c1 was tested, and the T/C (dose: 25.0 mg/kg/injection, schedule: Q01DX009 (ip), vehicle: Klucel (hydroxypropylcellulose) (HPC)) was 102 % of control, the T/C [7] was 111 % of control and 118 % of control and the T/C [8] was 118 % of control. For the same molecule, the T/C [9] was 118 % of control.

In the case of Cc1cccc(=N)n1CCC(=O)O, the T/C (dose: 100.0 mg/kg/injection, schedule: Q01DX009 (ip), vehicle: saline) is reported as 90 % of control and the T/C (dose: 200.0 mg/kg/injection, schedule: Q01DX009 (ip), vehicle: saline) is reported as 100 % of control.

CC(=O)Nc1ccc(O)c(CN2CCN(c3ccccc3)CC2)c1 was tested, and the T/C [7] was 102 % of control, the T/C [8] was 103 % of control and the T/C [9] was 97 % of control.

With ClCCN(CCCl)c1ccc(CCCCN2CCCCC2)cc1 the T/C (dose: 6.25 mg/kg/injection, schedule: Q01DX009 (ip), vehicle: Klucel (hydroxypropylcellulose) (HPC)) was 153 % of control and the T/C (dose: 12.5 mg/kg/injection, schedule: Q01DX009 (ip), vehicle: Klucel (hydroxypropylcellulose) (HPC)) was 183 % of control.

With CC1(C)N=C(N)N=C(N)N1c1cccc(CCCCc2ccc(Cl)c(S(=O)(=O)F)c2)c1 the T/C (dose: 9.33 mg/kg/injection, schedule: Q01DX009 (ip), vehicle: saline) was 118 % of control.

With Cn1c(=O)n2n(c1=O)C1C3C4C3C3C5(COCC135)C42 (stereo not given) the T/C [7] was 97 % of control, the T/C [8] was 92 % of control and the T/C [9] was 97 % of control.

c1cc2c(cc1CC1CCNC1)OCO2 (stereo not given) was tested, and the T/C (dose: 5.0 mg/kg/injection, schedule: Q01DX009 (ip), vehicle: saline) was 95 % of control, the T/C (dose: 10.0 mg/kg/injection, schedule: Q01DX009 (ip), vehicle: saline) was 100 % of control and the T/C (dose: 20.0 mg/kg/injection, schedule: Q01DX009 (ip), vehicle: saline) was 95 % of control.

C=C1C(=O)[C@]23C[C@H]1CC[C@H]2[C@@]12CO[C@@H](O)[C@@H]1C(C)(C)[C@@H](O)C[C@@H]2OC3=O was tested, and the T/C (dose: 3.8 mg/kg/injection, schedule: Q01DX008 (ip), vehicle: saline with Tween-80) was 100 % of control, the T/C (dose: 7.5 mg/kg/injection, schedule: Q01DX008 (ip), vehicle: saline with Tween-80) was 102 % of control and the T/C (dose: 7.5 mg/kg/injection, schedule: Q01DX009 (ip), vehicle: saline with Tween-80) was 113 % of control. The T/C (dose: 15.0 mg/kg/injection, schedule: Q01DX008 (ip), vehicle: saline with Tween-80) was 94 % of control, the T/C (dose: 15.0 mg/kg/injection, schedule: Q01DX009 (ip), vehicle: saline with Tween-80) was 123 % of control and the T/C (dose: 30.0 mg/kg/injection, schedule: Q01DX008 (ip), vehicle: saline with Tween-80) was 102 % of control. For the same molecule, the T/C (dose: 30.0 mg/kg/injection, schedule: Q01DX009 (ip), vehicle: saline with Tween-80) was 117 % of control and the T/C (dose: 60.0 mg/kg/injection, schedule: Q01DX009 (ip), vehicle: saline with Tween-80) was 113 % of control.

NNC(=O)c1cccc(C(=O)NN)c1 was tested, and the T/C [1] was 94 % of control, the T/C [2] was 97 % of control and the T/C [3] was 92 % of control.

Nc1nc2c(c(-c3nc(N)nc4c3CCC4)n1)CCC2 was tested, and the T/C [5] was 98 % of control, the T/C [6] was 106 % of control and the T/C (dose: 240.0 mg/kg/injection, schedule: Q01DX005 (ip), vehicle: saline) was 97 % of control.
